From patent US20250085201A1, “SUBSTITUTED QUADRUPOLAR FLUORESCENT DYES FOR LIVE CELL IMAGING” (Northwestern University, priority 2023, published 2025) come the findings set out here.

The nature of data set [1]: Transient absorption (fsTA/nsTA) and time-resolved fluorescence spectroscopy. Format: physicochemical. To be noted: in H2O. An excerpt:
The excited-state properties of these quadrupolar dyes were investigated using transient absorption (TA) spectroscopy. The TA data of dyes 1-4 and 6 in MeCN with lex=350 nm (FIGS. 9-12 and 15) show similar spectra with the same general electronic evolution, though with differing kinetics. Following excitation, strong excited-state absorption features appear between ˜450-500 nm along with a strong single peak in the near-infrared region, both of which are associated with Sn←S1 absorptions. The visible bands redshift over the following ˜100 ps, while the near-infrared band peaks first blueshift in the initial ˜10 ps before settling. These near-infrared absorption bands are similar to those observed^59,60 in extended bipyridinium compounds. Following these shifts, the excited states decay via emission with lifetimes between 3-4 ns as confirmed by time-resolved fluorescence (TRF) spectroscopy. The spectral shape of the transient species is generally maintained throughout their lifetimes, implying that the dynamics in each dye all occur on a single electronic excited state (S1) prior to emission. The spectral shifts at early times may arise due to excited-state symmetry breaking^77-78 in the quadrupolar dyes, wherein fluctuations in the instantaneous electrostatic environment afforded by the solvent transiently favor wavefunction localization on one side of the symmetric molecule, creating an excited state with a large dipole moment that is associated with the Stokes shift observed^79 in the fluorescence spectra. This localization can lead to changes in the transient absorption spectra as a result of the breakdown^42,80 of the Laporte rule. The shifts at longer times may arise from solvent or structural relaxation of the dyes.
Steady-state and time-resolved emission spectra for dyes 1-6, 7·2PF6 and 9·4PF6 were acquired using a HORIBA Fluorolog-3 spectrofluorometer, equipped with a time-correlated single photon counting (TCSPC) module (diode laser excitation at λ=375 nm) and an integrating sphere, which was used for absolute photo-luminescence quantum yield determinations. Picosecond time-resolved fluorescence measurements were recorded using a commercial direct-diode-pumped 100 kHz amplifier (Spirit 1040-HE, Spectra-Physics), producing a fundamental beam of 1040 nm (350 fs, 12 W) which was used to pump a non-collinear optical parametric amplifier (Spirit-NOPA, SpectraPhysics) capable of delivering tunable, high-repetition-rate pulses with pulse widths as short as sub-20 fs. Dyes 1-6, 7·2PF6 and 9·4PF6 were excited with 350 nm, 2 nJ laser pulses. Fluorescence was detected using a Hamamatsu C4780 Streakscope as previously described in the literature. Samples were prepared in 2-mm quartz cuvettes. All data were acquired in the single-photon-counting mode using the Hamamatsu HPD-TA software. The temporal resolution was approximately 2% of the sweep window. Single wavelength kinetic analysis was performed using a nonlinear least-squares fit to a sum of exponentials convoluted with an instrument response function. Visible and near-infrared femtosecond and nanosecond transient absorption (fsTA and nsTA, respectively) spectroscopies were performed following descriptions already recorded in the literature. The 330 nm, ˜100 fs pump pulses were generated at 1 μJ per pulse using a commercial collinear optical parametric amplifier (TOPAS-Prime, Light-Conversion, Ltd.); 414-nm pump pulses were obtained by second-harmonic generation of the 828 nm fundamental. The pump polarization was randomized using a commercial depolarizer (DPU-25-A, Thorlabs, Inc.) to eliminate any orientational dynamics resulting from the experiment. Spectra were collected on commercial spectrometers (customized Ultrafast Systems Helios and EOS spectrometers, for fsTA and nsTA, respectively) for each time window. All samples were stirred to avoid localized heating or degradation effects. The optical density was maintained at 0.6 for all samples. […]

Data set [2] can be described thus: Absolute fluorescence quantum yield (integrating sphere). The conditions noted are these: 414 nm excitation. Format: physicochemical.
In data set [3] the test system is MCF-7 breast cancer cells. As to the kind of experiment: Cell growth / cytotoxicity experiments (phase contrast imaging, cell number). To be noted: MCF-7 cells. Format: cell-based. As for the experimental part:
Small molecular dyes are known^86 to intercalate with the DNA on account of electrostatic and base-pair interactions. The presence of these interactions inhibits enzyme function, elevating the cytotoxicity in living cells. To test the cytotoxicity of dye 9·4Cl, (FIG. 6) a series of cell uptake and viability experiments using MCF-7 breast cancer cells were performed. […] Moreover, the cells were viable and treatments of up to 10 μM concentration are non-cytotoxic for up to 64 h post-treatment.
MCF-7 Cells were plated in a 96-well culture plate at a density of 0.01×10^6 cells per well in Dulbecco's modified eagle medium (DMEM) media with 10% fetal bovine serum (FBS) and 1% Penicillin-Streptomycin. Cells were cultured for 24 h then treated with the compounds at a range of concentrations from 0.1-50 μM. Upon treatment, cells were placed in a BioTek LionheartFX system, where they were imaged at 4× magnification every 3 h for 72 h under standard culture conditions (37° C., 5% CO2). Phase contrast images were processed and analyzed with BioTek Gen5 analysis software to identify cell number at each time point during the culture period.
MCF-7 Breast cancer cells were grown in standard Dulbecco's modified eagle medium (DMEM), which was supplemented with 10% Fetal Bovine Serum (FBS) and 1% Penicillin-Streptomycin (Corning). Cells were seeded into an 8-well imaging coverglass chamber (manufacturer-CellVis) or multiwell plate using phenol red free DMEM about 24 h prior to treatment. Dye 9·4Cl was resuspended in deionized H2O before being diluted to their final concentrations in the cell culture media. Cells were treated with the dye for 24 h prior to imaging. Uptake assays were carried out at concentrations from 1-50 μM, including a vehicle control (untreated). For the cell growth assays, cells were treated with the dye for 24 h at a range of concentrations from 0.1-50 μM.
For the cell cytotoxicity experiments, MCF-7 cells were plated in a 96-well culture plate at a density of 0.01×10^6 cells per well in DMEM media with 10% FBS and 1% Penicillin-Streptomycin. Cells were cultured for 24 h before being treated with the dye at a range of concentrations from 0.1-50 μM. After treatment, cells were placed in a BioTek LionheartFX system, where they were imaged at 4× magnification every 3 h for 72 h under standard (37° C., 5% CO2) culture conditions. Phase contrast images were processed and analyzed with BioTek Gen5 analysis software to identify cell numbers at each time point during the culture period.

Data set [4] is described as follows: Transient absorption (fsTA/nsTA) and time-resolved fluorescence spectroscopy. Format: physicochemical. To be noted: in H2O. This is another data set of the same source.

On to `COc1cc2c(OC)cc1-c1cc[n+](cc1)Cc1ccc(cc1)C[n+]1ccc(cc1)-c1cc(OC)c(cc1OC)-c1cc[n+](cc1)Cc1ccc(cc1)C[n+]1ccc-2cc1` [9·4Cl], for which, in data set [1], the “rate constant k2 from TA data” value was “(188 ± 4 ps)^−1 (ps)^−1” and the “rate constant k3 from TA data” value is reported as “(3.45 ± 0.01 ns)^−1 (ns)^−1”. Moreover, in data set [1] (kR = kobsΦF), the “radiative decay rate constant kR” value is on record as “(17.9 ± 0.6 ns)^−1 (ns)^−1”. Also, the “ΦF in the solid-state (powder)” value in data set [2] came to 0.016±0.005. Also, the cell growth entry in data set [3] (concentrations of 5 μM and above) is on record as “decreases gradually”. Also, the cell death entry in data set [3] (higher concentrations (range tested up to 50 μM)) is reported as “minimal cell death is observed”. Moreover, the “growth of the cells versus non-treated control cells” value in data set [3] (low concentrations (up to 1 μM)) is given as “comparable with that of non-treated control cells”. Besides, in data set [3] (treatments of up to 10 μM, up to 64 h post-treatment), the cytotoxicity result is given as “non-cytotoxic”. In data set [4], the CT state lifetime came to 2.69±0.02 ns and the “rate constant k1 from TA data” value is on record as “(1.4 ± 0.3 ps)^−1 (ps)^−1”. Besides, the “non-radiative decay rate constant kNR” value in data set [4] (kNR = kobs(1 − ΦF)) is “(3.16 ± 0.02 ns)^−1 (ns)^−1”.
